One series concerns the target ABL (Homo sapiens (Human), UniProt P00519). The series is described as follows: Kinase screening assay (IC50). It counts as biochemical.
The target in another series is mTOR (Homo sapiens (Human), UniProt P42345). The series is described as follows: Kinase screening assay (IC50). It counts as biochemical.
The target of the next series is PDGFRa (Homo sapiens (Human), UniProt P16234). The series is described as follows: Kinase screening assay (IC50). It counts as biochemical.
The target of the next series is KIT (Homo sapiens (Human), UniProt P10721). The series is described as follows: Kinase screening assay (IC50).
A further series has as its target RET (Homo sapiens (Human), UniProt P07949). The series is described as follows: Kinase screening assay (IC50).
For the next series, the target named is BLK (Homo sapiens (Human), UniProt P51451). Nature of the series: Kinase screening assay (IC50).
BLK, sequence (P51451 whole entry): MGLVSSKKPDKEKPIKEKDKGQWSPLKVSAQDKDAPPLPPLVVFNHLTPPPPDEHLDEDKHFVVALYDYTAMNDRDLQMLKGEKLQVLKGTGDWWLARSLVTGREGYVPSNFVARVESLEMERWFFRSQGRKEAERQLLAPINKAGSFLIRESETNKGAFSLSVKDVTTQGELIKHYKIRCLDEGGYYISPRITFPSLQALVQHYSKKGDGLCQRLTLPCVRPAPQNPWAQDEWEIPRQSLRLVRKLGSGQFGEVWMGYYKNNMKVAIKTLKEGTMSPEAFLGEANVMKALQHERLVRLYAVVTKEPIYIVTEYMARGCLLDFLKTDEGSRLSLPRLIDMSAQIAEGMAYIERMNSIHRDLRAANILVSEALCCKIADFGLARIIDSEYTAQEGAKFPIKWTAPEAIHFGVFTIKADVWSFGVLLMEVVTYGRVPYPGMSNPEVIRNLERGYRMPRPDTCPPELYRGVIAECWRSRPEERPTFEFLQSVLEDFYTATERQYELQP
The next series concerns the target FRK/PTK5 (Homo sapiens (Human), UniProt P42685). The series is described as follows: Kinase screening assay (IC50).
The target of another series is HCK (Homo sapiens (Human), UniProt P08631). The series is described as follows: Kinase screening assay (IC50).
HCK, sequence (P08631 whole entry): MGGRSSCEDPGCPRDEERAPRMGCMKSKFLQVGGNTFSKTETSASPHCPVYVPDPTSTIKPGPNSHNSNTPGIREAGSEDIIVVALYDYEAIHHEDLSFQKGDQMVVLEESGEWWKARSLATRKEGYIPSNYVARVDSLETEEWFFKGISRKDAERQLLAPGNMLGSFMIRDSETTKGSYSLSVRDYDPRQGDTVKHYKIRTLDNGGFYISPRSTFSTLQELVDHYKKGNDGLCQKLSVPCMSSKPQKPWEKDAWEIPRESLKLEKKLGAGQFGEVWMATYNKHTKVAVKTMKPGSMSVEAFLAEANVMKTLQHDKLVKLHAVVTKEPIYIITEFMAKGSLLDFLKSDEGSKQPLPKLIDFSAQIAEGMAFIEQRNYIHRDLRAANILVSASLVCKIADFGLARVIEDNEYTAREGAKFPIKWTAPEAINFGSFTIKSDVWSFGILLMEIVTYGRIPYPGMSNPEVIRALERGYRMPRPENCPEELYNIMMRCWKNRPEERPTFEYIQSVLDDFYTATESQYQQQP
A further series concerns the target LCK (Homo sapiens (Human), UniProt P06239). Nature of the series: Kinase screening assay (IC50).
The next series addresses LYN (Homo sapiens (Human), UniProt P07948). The series is described as follows: Kinase screening assay (IC50).
In the next series the target is SRC (Homo sapiens (Human), UniProt P12931). Nature of the series: Kinase screening assay (IC50). It counts as biochemical. The following applies: for IC50: 10 μM ATP, read-out: Target inhibition (IC50) SRC.
SRC, sequence (P12931 whole entry, looked up): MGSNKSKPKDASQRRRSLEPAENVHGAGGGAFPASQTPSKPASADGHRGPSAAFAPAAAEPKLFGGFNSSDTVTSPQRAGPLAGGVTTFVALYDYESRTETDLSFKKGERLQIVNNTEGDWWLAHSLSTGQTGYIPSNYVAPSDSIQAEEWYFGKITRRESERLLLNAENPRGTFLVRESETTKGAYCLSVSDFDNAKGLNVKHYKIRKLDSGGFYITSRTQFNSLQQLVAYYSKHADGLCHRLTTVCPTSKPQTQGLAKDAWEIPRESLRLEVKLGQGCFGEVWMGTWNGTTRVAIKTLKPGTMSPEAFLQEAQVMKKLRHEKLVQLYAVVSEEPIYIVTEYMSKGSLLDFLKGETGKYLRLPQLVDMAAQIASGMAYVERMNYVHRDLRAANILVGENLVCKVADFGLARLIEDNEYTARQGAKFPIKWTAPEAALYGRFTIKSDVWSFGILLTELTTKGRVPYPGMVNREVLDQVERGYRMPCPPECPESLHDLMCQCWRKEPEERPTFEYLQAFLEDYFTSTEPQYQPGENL
The target of the next series is FGR (Homo sapiens (Human), UniProt P09769). The series is described as follows: Kinase screening assay (IC50).
FGR, sequence (P09769 whole entry): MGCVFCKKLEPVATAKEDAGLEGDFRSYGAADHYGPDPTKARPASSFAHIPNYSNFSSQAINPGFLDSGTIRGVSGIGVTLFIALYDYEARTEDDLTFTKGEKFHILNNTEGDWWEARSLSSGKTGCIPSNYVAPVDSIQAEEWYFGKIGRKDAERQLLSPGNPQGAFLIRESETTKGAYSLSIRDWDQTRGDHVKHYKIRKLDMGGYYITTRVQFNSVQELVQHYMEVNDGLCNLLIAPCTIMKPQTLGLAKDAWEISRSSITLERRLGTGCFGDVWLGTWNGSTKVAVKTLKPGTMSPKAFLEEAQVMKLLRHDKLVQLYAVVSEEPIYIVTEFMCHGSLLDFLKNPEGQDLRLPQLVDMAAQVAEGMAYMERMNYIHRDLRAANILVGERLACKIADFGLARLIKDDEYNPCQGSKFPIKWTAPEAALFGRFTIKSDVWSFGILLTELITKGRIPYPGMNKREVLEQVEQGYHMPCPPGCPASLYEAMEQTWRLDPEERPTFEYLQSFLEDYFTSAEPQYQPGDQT
Another series deals with FYN (Homo sapiens (Human), UniProt P06241). Nature of the series: Kinase screening assay (IC50).
FYN, sequence (P06241 whole entry): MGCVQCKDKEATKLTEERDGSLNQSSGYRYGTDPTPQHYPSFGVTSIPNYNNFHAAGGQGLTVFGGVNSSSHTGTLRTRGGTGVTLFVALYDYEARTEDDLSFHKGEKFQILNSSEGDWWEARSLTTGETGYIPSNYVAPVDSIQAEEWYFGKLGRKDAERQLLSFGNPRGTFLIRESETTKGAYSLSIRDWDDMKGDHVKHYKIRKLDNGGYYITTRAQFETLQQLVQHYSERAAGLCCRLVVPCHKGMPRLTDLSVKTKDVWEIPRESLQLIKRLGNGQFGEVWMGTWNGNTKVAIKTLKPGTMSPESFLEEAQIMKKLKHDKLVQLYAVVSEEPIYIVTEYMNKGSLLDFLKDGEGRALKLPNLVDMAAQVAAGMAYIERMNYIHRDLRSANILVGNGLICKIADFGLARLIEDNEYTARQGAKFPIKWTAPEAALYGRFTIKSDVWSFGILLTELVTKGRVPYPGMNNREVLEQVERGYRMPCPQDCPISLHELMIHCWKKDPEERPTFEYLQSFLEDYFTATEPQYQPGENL
In a further series the target is YES (Homo sapiens (Human), UniProt P07947). The series is described as follows: Kinase screening assay (IC50).
The next series addresses CYP1A2 (Homo sapiens (Human), UniProt P05177). The series is described as follows: in vitro.
The conditions of series [1]: rat, serum.
A further series concerns the target CYP3A4 (Homo sapiens (Human), UniProt P08684). The series is described as follows: CYP P450 inhibition.
Another series deals with CYP2C9 (Homo sapiens (Human), UniProt P11712). The series is described as follows: CYP P450 inhibition.
A further series addresses CYP2D6 (Homo sapiens (Human), UniProt P10635). The series is described as follows: CYP P450 inhibition.
A further series deals with CYP2C19 (Homo sapiens (Human), UniProt P33261). The series is described as follows: CYP P450 inhibition.
For series [2] the following is noted: human, serum.
The target of another series is hERG channel (Homo sapiens (Human), UniProt Q12809). The series is described as follows: hERG Safety Assay, Ionworks high-throughput electrophysiology. On the technique in general: Block of hERG is tested as a sign of cardiac risk.
Another series concerns MCF7 cells. Nature of the series: Cell viability assay (PrestoBlue). It counts as cell-based. The following applies: Homo sapiens, MCF7, 120 h; cell viability at day 5; read-out: Antiproliferative activity (EC50) MCF7.
A further series relates to MDA-MB-231 cells. Nature of the series: Cell viability assay (PrestoBlue). It counts as cell-based. The following applies: Homo sapiens, MDA-MB-231, 120 h, read-out: Antiproliferative activity (EC50) MDA-MB-231; cell viability at day 5.
Series [3] relates to SYF fibroblasts (deficient for Src, Yes, and Fyn). The series is described as follows: Cell viability assay (PrestoBlue). It counts as cell-based, murine. As to conditions: Mus musculus, Fibroblast, 120 h; cell viability at day 5; read-out: Antiproliferative activity (EC50) SYF (−/− Src).
[4] abbreviates: 10 μM ATP, read-out: Target inhibition (IC50) ABL.
The mark [5] stands for this setting: 10 μM ATP, read-out: Target inhibition (IC50) mTOR.
The mark [6] stands for this setting: 10 μM ATP, read-out: Target inhibition (IC50) PDGFRa.
Setting [7] is: read-out: Target inhibition (IC50) KIT, 10 μM ATP.
Where [8] appears, read: read-out: Target inhibition (IC50) RET, 10 μM ATP.
The mark [9] stands for this setting: read-out: Target inhibition (IC50) BLK, 10 μM ATP.
[10] abbreviates: read-out: Target inhibition (IC50) FRK/PTK5, 10 μM ATP.
Where [11] appears, read: read-out: Target inhibition (IC50) HCK, 10 μM ATP.
Setting [12] is: read-out: Target inhibition (IC50) LCK, 10 μM ATP.
Where [13] appears, read: read-out: Target inhibition (IC50) LYN, 10 μM ATP.
Setting [14] is: read-out: Target inhibition (IC50) FGR, 10 μM ATP.
The mark [15] stands for this setting: read-out: Target inhibition (IC50) FYN, 10 μM ATP.
The mark [16] stands for this setting: read-out: Target inhibition (IC50) YES, 10 μM ATP.

In general, inhibition refers to the change of the read-out against control, counted positive when it falls. The fraction unbound is free concentration divided by total concentration.

SMILES strings stand for the structures. Read-outs that look alike come from different tables or passages of the source.

LYN, sequence (P07948 whole entry): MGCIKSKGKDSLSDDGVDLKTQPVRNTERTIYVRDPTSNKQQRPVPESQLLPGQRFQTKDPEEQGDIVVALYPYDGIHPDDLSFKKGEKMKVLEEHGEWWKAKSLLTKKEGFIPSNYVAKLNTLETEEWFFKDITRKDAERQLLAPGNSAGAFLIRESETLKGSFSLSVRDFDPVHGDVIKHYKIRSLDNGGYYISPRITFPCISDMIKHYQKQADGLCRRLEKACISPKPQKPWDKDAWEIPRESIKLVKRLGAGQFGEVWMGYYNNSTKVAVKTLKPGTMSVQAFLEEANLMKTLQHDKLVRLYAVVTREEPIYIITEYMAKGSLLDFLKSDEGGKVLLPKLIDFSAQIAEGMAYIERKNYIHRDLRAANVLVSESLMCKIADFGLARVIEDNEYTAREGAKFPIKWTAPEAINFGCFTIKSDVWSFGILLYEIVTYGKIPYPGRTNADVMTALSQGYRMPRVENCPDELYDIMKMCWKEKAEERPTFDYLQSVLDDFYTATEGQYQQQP
RET, sequence (P07949 29-1114): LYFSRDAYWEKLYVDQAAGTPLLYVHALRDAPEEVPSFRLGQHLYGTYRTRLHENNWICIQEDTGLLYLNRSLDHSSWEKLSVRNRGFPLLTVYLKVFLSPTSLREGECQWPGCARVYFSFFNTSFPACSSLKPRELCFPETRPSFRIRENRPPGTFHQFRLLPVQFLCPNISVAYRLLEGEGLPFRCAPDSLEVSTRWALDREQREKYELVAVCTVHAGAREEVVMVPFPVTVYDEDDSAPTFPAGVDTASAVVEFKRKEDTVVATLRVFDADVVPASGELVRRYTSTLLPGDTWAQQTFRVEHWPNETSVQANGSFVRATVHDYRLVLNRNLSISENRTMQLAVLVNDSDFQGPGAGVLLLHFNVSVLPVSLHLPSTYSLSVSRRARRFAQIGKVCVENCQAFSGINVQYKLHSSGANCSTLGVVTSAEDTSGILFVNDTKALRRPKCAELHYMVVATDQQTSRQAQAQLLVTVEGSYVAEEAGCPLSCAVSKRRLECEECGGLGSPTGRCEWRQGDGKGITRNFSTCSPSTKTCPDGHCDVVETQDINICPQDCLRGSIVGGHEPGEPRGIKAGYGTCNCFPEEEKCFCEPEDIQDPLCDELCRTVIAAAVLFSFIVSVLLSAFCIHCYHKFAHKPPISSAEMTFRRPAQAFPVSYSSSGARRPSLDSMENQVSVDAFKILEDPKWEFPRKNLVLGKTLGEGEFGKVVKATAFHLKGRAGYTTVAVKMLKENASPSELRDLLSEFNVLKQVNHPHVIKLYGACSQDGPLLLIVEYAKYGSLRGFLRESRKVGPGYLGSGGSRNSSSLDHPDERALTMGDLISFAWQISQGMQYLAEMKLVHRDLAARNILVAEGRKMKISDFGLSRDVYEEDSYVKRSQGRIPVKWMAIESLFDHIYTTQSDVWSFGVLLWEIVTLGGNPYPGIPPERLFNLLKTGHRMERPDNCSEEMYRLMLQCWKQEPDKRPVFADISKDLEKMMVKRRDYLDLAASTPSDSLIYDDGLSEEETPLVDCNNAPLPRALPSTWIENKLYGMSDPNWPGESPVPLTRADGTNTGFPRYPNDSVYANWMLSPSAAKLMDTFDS
LCK, sequence (P06239 whole entry): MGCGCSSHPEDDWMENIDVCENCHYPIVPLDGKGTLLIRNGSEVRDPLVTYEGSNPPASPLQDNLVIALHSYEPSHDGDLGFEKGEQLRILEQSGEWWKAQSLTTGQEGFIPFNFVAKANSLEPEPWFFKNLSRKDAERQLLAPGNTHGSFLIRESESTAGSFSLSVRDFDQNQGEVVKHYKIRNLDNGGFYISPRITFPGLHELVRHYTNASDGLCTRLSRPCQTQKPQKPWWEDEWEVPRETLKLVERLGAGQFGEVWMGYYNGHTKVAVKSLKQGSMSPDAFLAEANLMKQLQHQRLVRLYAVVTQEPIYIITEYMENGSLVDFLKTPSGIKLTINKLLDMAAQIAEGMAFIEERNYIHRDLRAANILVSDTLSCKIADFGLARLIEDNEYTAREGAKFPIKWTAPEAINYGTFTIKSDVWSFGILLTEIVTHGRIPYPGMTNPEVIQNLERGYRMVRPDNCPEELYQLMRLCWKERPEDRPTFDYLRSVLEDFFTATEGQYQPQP

Take `Cc1ccc(-c2nn(CCN3CCN(C)CC3)c3ncnc(N)c23)cc1` [Compound 103]: the IC50 at ABL (setting [4]), at mTOR (setting [5]), at PDGFRa (setting [6]), at KIT (setting [7]), on RET (setting [8]) and at BLK (setting [9]) was greater than 1000 nM in each case. Besides, the IC50 on FRK/PTK5 (setting [10]), on HCK (setting [11]), on LCK (setting [12]) and on LYN (setting [13]) was greater than 1000 nM in each case.

For `COc1cc(-c2nn(CCN3CCC(CN(C)C)CC3)c3ncnc(N)c23)ccc1NC(=O)OC(C)(C)C` [Compound 503, tert-butyl N-[4-[4-amino-1-[2-[4-(dimethylaminomethyl)-1-piperidyl]ethyl]pyrazolo[3,4-d]pyrimidin-3-yl]-2-methoxy-phenyl]carbamate], the IC50 on ABL (setting [4]) was 100 to 1000 nM; at ABL (recombinant kinase, read-out: IC50 Abl) it was 189 nM; on mTOR (setting [5]), greater than 1000 nM; on mTOR (recombinant kinase, read-out: IC50 mTOR), greater than 10000 nM; at PDGFRa (setting [6]), greater than 1000 nM; at PDGFRa (recombinant kinase, read-out: IC50 PDGFRα), greater than 10000 nM. In addition, the IC50 at SRC was less than 10 nM; at KIT it was 7130 nM; on KIT (setting [7]), greater than 1000 nM; at RET, greater than 10000 nM; at RET (setting [8]), greater than 1000 nM; on BLK (setting [9]), less than 10 nM. In addition, the IC50 on FGR (setting [14]) is less than 10 nM; on FRK/PTK5 (setting [10]), less than 10 nM; on FYN, 4.6 nM; on FYN (setting [15]) it was less than 10 nM; at HCK (setting [11]), less than 10 nM; at LCK (setting [12]) it was less than 10 nM. Also, the IC50 was less than 10 nM at LYN (setting [13]), less than 0.5 nM on YES and less than 10 nM on YES (setting [16]). Further, the “potency (IC50) against Src, in words” value on SRC is “sub-nano molar”. The “potency (IC50) against Yes, in words” value on YES was “sub-nano molar”.

With `COc1cc(-c2nn(CCN3CCC(N4CCCCC4)CC3)c3ncnc(N)c23)ccc1NC(=O)OC(C)(C)C` [Compound 519, tert-butyl N-[4-[4-amino-1-[2-[4-(1-piperidyl)-1-piperidyl]ethyl]pyrazolo[3,4-d]pyrimidin-3-yl]-2-methoxy-phenyl]carbamate], the IC50 at mTOR (setting [5]), at mTOR (read-out: Kinase Screening (IC50) mTOR), at PDGFRa (setting [6]), at PDGFRa (read-out: Kinase Screening (IC50) PDGFRa), at KIT (read-out: Kinase Screening (IC50) c-KIT) and at KIT (setting [7]) was greater than 1000 nM in each case. Moreover, the IC50 at RET (read-out: Kinase Screening (IC50) RET) was greater than 1000 nM; at RET (setting [8]), greater than 1000 nM; on BLK (read-out: Kinase Screening (IC50) BLK, Src Family), less than 10 nM; on BLK (setting [9]), less than 10 nM; at FGR (read-out: Kinase Screening (IC50) FGR, Src Family), less than 10 nM; at FGR (setting [14]), less than 10 nM. In addition, the IC50 was less than 10 nM at FRK/PTK5 (read-out: Kinase Screening (IC50) FRK, Src Family); less than 10 nM on FRK/PTK5 (setting [10]); less than 10 nM on FYN (read-out: Kinase Screening (IC50) FYN, Src Family); less than 10 nM at FYN (setting [15]); less than 10 nM at HCK (read-out: Kinase Screening (IC50) HCK, Src Family); less than 10 nM on HCK (setting [11]). Also, the IC50 on LCK (read-out: Kinase Screening (IC50) LCK, Src Family) is less than 10 nM; on LCK (setting [12]), less than 10 nM; on LYN (read-out: Kinase Screening (IC50) LYN, Src Family), less than 10 nM; on LYN (setting [13]) it was less than 10 nM; at hERG channel, 12.6 µM. Also, the inhibition at 10 µM was -1.6% on CYP1A2; -12.1% against CYP3A4; -70.3% on CYP2C9; 3% at CYP2D6; -3.1% against CYP2C19. Also, the unbound share (fraction unbound) came to 0.106 in series [1] and 0.143 in series [2].

Consider `COc1cc(-c2nn(CCN3CCC(N(C)C)CC3)c3ncnc(N)c23)ccc1NC(=O)Cc1ccccc1` [Compound 530, N-[4-[4-amino-1-[2-[4-(dimethylamino)-1-piperidyl]ethyl]pyrazolo[3,4-d]pyrimidin-3-yl]-2-methoxy-phenyl]-2-phenyl-acetamide], for which the EC50 (in the series on MCF7 cells; in the series on MDA-MB-231 cells; in series [3]) was greater than 10 µM in each case.

Take `COc1cc(-c2nn(CCN3CCC(N(C)C)CC3)c3ncnc(N)c23)ccc1NC(=O)CCc1ccccc1` [Compound 531, N-[4-[4-amino-1-[2-[4-(dimethylamino)-1-piperidyl]ethyl]pyrazolo[3,4-d]pyrimidin-3-yl]-2-methoxy-phenyl]-3-phenyl-propanamide]: the EC50 with MCF7 cells is 1 to 10 µM; in the series with MDA-MB-231 cells, greater than 10 µM; in series [3], greater than 10 µM.

For the molecule `COc1cc(-c2nn(CCN3CCC(N(C)C)CC3)c3ncnc(N)c23)ccc1N` [Compound 532, 3-(4-amino-3-methoxy-phenyl)-1-[2-[4-(dimethylamino)-1-piperidyl]ethyl]pyrazolo[3,4-d]pyrimidin-4-amine], the EC50 is 1 to 10 µM with MCF7 cells, 1 to 10 µM in the series on MDA-MB-231 cells and greater than 10 µM in series [3].

Turning to `CN(C)C1CCN(CCn2nc(-c3cccc(NC(=O)OC(C)(C)C)c3)c3c(N)ncnc32)CC1` [Compound 542, tert-butyl N-[3-[4-amino-1-[2-[4-(dimethylamino)-1-piperidyl]ethyl]pyrazolo[3,4-d]pyrimidin-3-yl]phenyl]carbamate], the EC50 (in the series with MCF7 cells; in the series with MDA-MB-231 cells; in [3]) was greater than 10 µM throughout.

Turning to `CN(C)C1CCN(CCn2nc(-c3ccc(NC(=O)OC(C)(C)C)cc3)c3c(N)ncnc32)CC1` [Compound 543], the IC50 is greater than 1000 nM on ABL (setting [4]); greater than 1000 nM on mTOR (setting [5]); greater than 1000 nM on PDGFRa (setting [6]); 10 to 100 nM on SRC; greater than 1000 nM on KIT (setting [7]); greater than 1000 nM on RET (setting [8]). Further, the IC50 is less than 10 nM at FGR (setting [14]), 100 to 1000 nM against FYN, 10 to 100 nM on LCK and less than 10 nM on YES (setting [16]).

As to `COc1cc(-c2nn(CCN3CCC(N(C)C)CC3)c3ncnc(N)c23)ccc1Cc1ncc(C)o1` [Compound 584, 1-[2-[4-(dimethylamino)-1-piperidyl]ethyl]-3-[3-methoxy-4-[(5-methyloxazol-2-yl)methyl]phenyl]pyrazolo[3,4-d]pyrimidin-4-amine], the IC50 at ABL (setting [4]) is greater than 1000 nM; on mTOR (setting [5]), greater than 1000 nM; on PDGFRa (setting [6]) it was greater than 1000 nM; at SRC, 10 to 100 nM; on KIT (setting [7]) it was greater than 1000 nM; at RET (setting [8]) it was greater than 1000 nM. Besides, the IC50 is less than 10 nM at FGR (setting [14]), 100 to 1000 nM on FYN, less than 10 nM on LCK (setting [12]) and less than 10 nM at YES (setting [16]).

Source of the values: patent US10294227B2, “Compounds” (UNIVERSITY COURT OF THE UNIVERSITY OF EDINBURGH, priority 2015, dated 2019).
